Data taken from ChEMBL document CHEMBL4842344, “Design, synthesis and biological activity evaluation of novel scopoletin-NO donor derivatives against MCF-7 human breast cancer in vitro and in vivo” (Eur J Med Chem, 2021).
Active and inactive are the calls of the source. The calls are words filed in the database; no cut-off is given here.

How the values were obtained:
MCF7 [1] = assay: Inhibition of cell proliferation in human MCF7 cells assessed as increase in intracellular NO production at 25 uM measured after 2.5 hrs by nitric oxide assay; format: functional, cell-based
MCF7 [2] = assay: Antiproliferative activity against human MCF7 cells assessed as inhibition of cell growth measured after 48 hrs by MTT assay; format: functional, cell-based; details: MCF7, 48 h
MCF-10A = assay: Cytotoxicity against human MCF-10A cells assessed as reduction in cell viability measured after 48 hrs by MTT assay; format: cell-based
MDA-MB-231 = assay: Antiproliferative activity against human MDA-MB-231 cells assessed as inhibition of cell growth measured after 48 hrs by MTT assay; format: functional, cell-based; details: MDA-MB-231, 48 h

Compound	Activity (MCF7 [1])	IC50 (MCF7 [2]) [µM]	IC50 (MCF-10A) [µM]	IC50 (MDA-MB-231) [µM]
COc1cc2cc(C(=O)NCCc3ccccc3)c(=O)oc2cc1OCCCOc1no[n+]([O-])c1S(=O)(=O)c1ccccc1	Active	0.64	6.33	0.98
COc1cc2cc(C(=O)Nc3ccccc3)c(=O)oc2cc1OCCCOc1no[n+]([O-])c1S(=O)(=O)c1ccccc1	Active	0.74	9.67	1.19
COc1cccc2c1C(=O)c1c(O)c3c(c(O)c1C2=O)C[C@@](O)(C(=O)CO)C[C@@H]3O[C@H]1C[C@H](N)[C@H](O)[C@H](C)O1 [DOXORUBICIN]	–	0.51	0.49	0.55
